We go through six compounds from patent US8034812B2, “Imidazopyridazine derivative having kinase inhibitory activity and pharmaceutical agent thereof” (Takeda Pharmaceutical Company Limited, priority 2006, dated 2011).

The test system of assay [1] is Human umbilical vein-derived vascular endothelial cells (HUVEC). In words: Vascular endothelial cell growth inhibitory test (VEGF-stimulated HUVEC, XTT). Type of assay: cell-based. The note with it: 120 h, 5 days of culture. On the procedure:
To be specific, HUVEC was suspended in a vascular endothelial cell medium containing the aforementioned 5% bovine fetal serum and plated on a 96 well flat bottom plate by 50 μL (3000 cells) each well. After culture overnight, various concentrations of the test substance and 120 ng/mL of vascular endothelial growth factor (VEGF) were dissolved in a vascular endothelial cell medium containing 5% bovine fetal serum and added to each well by 50 μL. After 5 days of culture, a XTT reagent (Wako Pure Chemical Industries, Ltd.) was added to each well by 10 μL, and the mixture was reacted in an incubator at 37° C., 5% carbon dioxide for 2-3 hr. The absorbance at 450 nm was measured by a microtiter plate reader and the cell growth inhibitory activity was determined.

In assay [2] the target is T1, VEGFR2 intracellular domain protein (Homo sapiens, UniProt P35968).
T1 construct: made in house; host or cells: SF-21 insect cells, recombinant baculovirus BAC-VEGFR2
T1 sequence (P35968 786-1356 limits assumed): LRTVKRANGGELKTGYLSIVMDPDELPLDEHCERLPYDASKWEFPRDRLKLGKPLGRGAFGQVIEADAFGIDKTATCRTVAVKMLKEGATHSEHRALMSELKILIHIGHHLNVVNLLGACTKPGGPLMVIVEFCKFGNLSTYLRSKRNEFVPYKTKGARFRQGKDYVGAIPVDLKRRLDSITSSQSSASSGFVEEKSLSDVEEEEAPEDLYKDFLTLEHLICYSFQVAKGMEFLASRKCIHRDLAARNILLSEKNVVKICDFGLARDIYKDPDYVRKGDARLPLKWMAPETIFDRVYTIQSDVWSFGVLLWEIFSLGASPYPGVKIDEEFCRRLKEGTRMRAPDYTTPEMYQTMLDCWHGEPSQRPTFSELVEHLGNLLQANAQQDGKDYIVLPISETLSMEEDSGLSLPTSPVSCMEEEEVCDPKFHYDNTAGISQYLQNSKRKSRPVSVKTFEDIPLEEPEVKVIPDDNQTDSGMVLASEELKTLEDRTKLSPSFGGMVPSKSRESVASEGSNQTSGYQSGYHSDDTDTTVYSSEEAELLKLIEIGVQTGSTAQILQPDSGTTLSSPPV
Description: Determination of vascular endothelial growth factor receptor 2 (VEGFR2) kinase inhibitory activity (AlphaScreen). Format: biochemical. The note with it: read-out: VEGFR2 kinase inhibitory rate. On the procedure: Human vascular endothelial growth factor receptor 2 (hereinafter to be referred to as VEGFR2) gene was cloned by PCR using cDNA Libraries Human Placenta (Clontech) as a template. The primer used for PCR was prepared from base sequence (Genbank Accession AF035121) information of VEGFR2 gene by adding a base sequence encoding flag peptide and a recognition sequence of the restriction enzyme to a base sequence (2671-4374 of Genbank Accession AF035121) encoding the VEGFR2 intracellular domain region, so that the protein contains an N-terminal Flag tag. The primer base sequence is shown below.
SF-21 cells were sown at 1×10^6 cells/mL to Sf-900II SFM medium (1 L, Invitrogen) containing 10% fetal bovine serum (trace), 50 mg/L Gentamicin (Invitrogen) and 0.1% Pluronic F-68 (Invitrogen), and shaking culture was performed using a 2 L volume Erlenmeyer flask at 27° C., 100 rpm. After culturing for 24 hrs, recombinant baculovirus BAC-VEGFR2 (13.4 mL) was added to the mixture, and the mixture was further cultured for 3 days. The culture medium was centrifuged at 2,000 rpm for 5 min to give virus-infected cells. The infected cells were washed with a phosphate buffered saline (Invitrogen), centrifuged under the same conditions, and the cells were preserved at −80° C. The cryopreserved cells were thawed in ice, suspended in buffer A (50 mM Tris buffer (30 mL, pH 7.4) containing 20% glycerol, 0.15 M NaCl) supplemented with Complete Protease Inhibitor (Boehringer), and ruptured 3 times with a Polytron homogenizer (Kinematica) at 20,000 rpm for 30 sec. The ruptured medium was clarified by centrifugation at 40,000 rpm for 30 min and filtered with a 0.45 μm filter. The filtrate was passed through a column packed with Anti-FLAG M2 Affinity Gel (4 mL, Sigma) at a flow rate of about 0.5 mL/min. The column was washed with buffer A, and eluted with buffer A containing 100 μg/mL of FLAG peptide. The eluate was concentrated with Vivaspin 20 (Vivascience) having a molecular weight cut off of 30K. The buffer of this concentrate was exchanged using NAP™ 25 column (Amersham Bioscience) equilibrated with buffer A. The fractions containing intracellular domain protein of VEGFR2 were collected, glycerol was added to the final concentration of 50% and cryopreserved at −80° C.
A test compound dissolved in dimethyl sulfoxide (DMSO) was diluted with a buffer (50 mM Tris-HCl (pH 7.5), 5 mM MgCl2, 5 mM MnCl2, 2 mM dithiothreitol, 0.01% Tween-20). To this compound solution (5 μL) was added a buffer (10 μL) containing 50 ng/mL of VEGFR2 intracellular domain protein and 250 ng/mL of biotin labeled polypeptide biotinyl-poly-Glu:Tyr (4:1) (CIS bio International). To the obtained mixture was added a buffer (10 μL) containing ATP (25 μM), the mixture was allowed to react at 25° C. for 5 min and the reaction was quenched with 25 μL of a stop solution (100 mM EDTA disodium salt, 62.5 mM HEPES buffer (pH 7.4), 250 mM NaCl, 0.1% bovine serum albumin, 10 μg/mL AlphaScreen assay streptavidin donor beads (Streptavidin Donor beads: PerkinElmer), 10 μg/mL AlphaScreen assay anti-phosphotyrosine recognition antibody PY-100 binding acceptor beads (Anti-phosphotyrosine (P-Tyr-100) Acceptor beads: PerkinElmer)). The reaction solution was allowed to stand at 25° C. for 16 hrs, and the wells were counted using a plate reader Fusion™ (PerkinElmer). The kinase inhibitory rate (%) of the test compound was calculated by the following formula: Inhibitory rate(%)=(1−(count of test compound−blank)÷(control−blank))×100

The target in assay [3] is T2, PDGFRα intracellular domain protein (Homo sapiens, UniProt P16234).
T2 construct: 125 ng/ml of PDGFRα intracellular domain protein (UPSTATE); purchased UPSTATE
T2 sequence (P16234 550-1089 limits assumed): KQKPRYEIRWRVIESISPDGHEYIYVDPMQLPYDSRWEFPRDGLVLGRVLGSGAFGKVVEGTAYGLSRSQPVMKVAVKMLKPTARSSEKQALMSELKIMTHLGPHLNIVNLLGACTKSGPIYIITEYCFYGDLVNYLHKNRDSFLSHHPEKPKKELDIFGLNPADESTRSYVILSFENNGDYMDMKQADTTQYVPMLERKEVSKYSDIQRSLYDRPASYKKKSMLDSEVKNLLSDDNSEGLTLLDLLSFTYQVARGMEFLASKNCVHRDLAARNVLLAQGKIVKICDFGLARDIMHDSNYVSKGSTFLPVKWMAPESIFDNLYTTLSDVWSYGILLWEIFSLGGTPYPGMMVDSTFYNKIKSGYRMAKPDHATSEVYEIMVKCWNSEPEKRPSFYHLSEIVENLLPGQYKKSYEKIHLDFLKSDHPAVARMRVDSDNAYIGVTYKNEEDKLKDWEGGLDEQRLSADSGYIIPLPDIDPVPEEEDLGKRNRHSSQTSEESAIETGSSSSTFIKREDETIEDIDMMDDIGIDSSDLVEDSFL
In words: Determination of platelet-derived growth factor receptor α (PDGFRα) kinase inhibitory activity (AlphaScreen). Type of assay: biochemical. On the procedure:
(§1) A test compound dissolved in dimethyl sulfoxide (DMSO) was diluted with a buffer (50 mM Tris-HCl (pH 7.5), 5 mM MgCl2, 5 mM MnCl2, 2 mM dithiothreitol, 0.01% Tween-20). To this compound solution (5 μL) was added a buffer (10 μL) containing 125 ng/ml of PDGFRα intracellular domain protein (UPSTATE) and 250 ng/mL of biotin labeled polypeptide biotinyl-poly-Glu:Tyr (4:1) (CIS bio International). At 5 min after mixing kinase enzyme and the compound and biotin labeled polypeptide, to the obtained mixture was added a buffer (10 μL) containing ATP (25 μM), the mixture was allowed to react at 25° C. for 30 min and the reaction was quenched with 25 μL of a stop solution (100 mM EDTA disodium salt, 62.5 mM HEPES buffer (pH 7.4), 250 mM NaCl, 0.1% bovine serum albumin, 10 μg/mL AlphaScreen assay streptavidin donor beads (Streptavidin Donor beads: PerkinElmer), 10 μg/mL AlphaScreen assay anti-phosphotyrosine recognition antibody PT-66 binding acceptor beads (Anti-phosphotyrosine (P-Tyr-66) Acceptor beads: PerkinElmer)). The reaction solution was allowed to stand at 25° C. for 16 hrs, and the wells were counted using a plate reader Fusion™ (PerkinElmer). The kinase inhibitory rate (%) of the test compound was calculated by the following formula: Inhibitory rate(%)=(1−(count of test compound−blank)÷(control−blank))×100
(§2) The count of the solution reacted without addition of the compound was used as a “control”, and the count of the solution without the compound and ATP was used as a “blank”.
For orientation: In Alpha technology, singlet oxygen from a donor bead excites a nearby acceptor bead.

Assay [4] addresses T3, PDGFRβ intracellular domain protein (Homo sapiens, UniProt P09619).
T3 construct: 125 ng/ml of PDGFRβ intracellular domain protein (UPSTATE); purchased UPSTATE
In words: Determination of platelet-derived growth factor receptor β (PDGFRβ) kinase inhibitory activity (AlphaScreen). Type of assay: biochemical. On the procedure: as §1, with “of PDGFRβ” for “of PDGFRα”, “Donor Beads:” for “Donor beads:”, “test compound[…])÷(control−blank))×100” for “test compound−blank)÷(control−blank))×100”
as §2

T3 sequence (P09619 554-1106 limits assumed): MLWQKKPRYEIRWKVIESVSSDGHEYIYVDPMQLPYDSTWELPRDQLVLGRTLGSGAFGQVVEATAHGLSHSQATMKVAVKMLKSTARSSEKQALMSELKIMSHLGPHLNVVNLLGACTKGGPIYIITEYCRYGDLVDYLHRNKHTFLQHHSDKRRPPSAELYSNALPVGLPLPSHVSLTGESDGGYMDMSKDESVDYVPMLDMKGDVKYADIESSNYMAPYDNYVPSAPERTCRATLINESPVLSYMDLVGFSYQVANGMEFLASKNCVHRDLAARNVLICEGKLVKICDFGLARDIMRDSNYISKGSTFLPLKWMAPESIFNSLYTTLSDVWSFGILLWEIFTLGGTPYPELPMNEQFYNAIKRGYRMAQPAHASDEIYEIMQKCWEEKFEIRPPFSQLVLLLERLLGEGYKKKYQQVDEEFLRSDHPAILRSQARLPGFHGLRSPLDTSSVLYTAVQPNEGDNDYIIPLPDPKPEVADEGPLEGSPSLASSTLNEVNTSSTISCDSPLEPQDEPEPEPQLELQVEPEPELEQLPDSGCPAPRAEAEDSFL

With `CCc1cc(C(=O)Nc2cc(Oc3ccc4nc(NC(=O)C5CC5)cn4n3)ccc2F)n(C)n1` [Example 208, N-[5-({2-[(cyclopropylcarbonyl)amino]imidazo[1,2-b]pyridazin-6-yl}oxy)-2-fluorophenyl]-3-ethyl-1-methyl-1H-pyrazole-5-carboxamide], the IC50 in assay [1], in assay [3] and in assay [4] was not above 500 nM each time. In assay [2], the inhibition at 1 µM was not below 90%.

Take `Cc1nc(C)c(C(=O)Nc2cc(Oc3ccc4nc(NC(=O)C5CC5)cn4n3)ccc2F)o1` [Example 289, N-[5-({2-[(cyclopropylcarbonyl)amino]imidazo[1,2-b]pyridazin-6-yl}oxy)-2-fluorophenyl]-2,4-dimethyl-1,3-oxazole-5-carboxamide]: the IC50 in assay [1], in assay [3] and in assay [4] was not above 500 nM each time. The inhibition at 1 µM in assay [2] is not below 90%.

Regarding `Cc1cc(C(=O)Nc2cccc(Nc3ccc4nc(NC(=O)C5CC5)cn4n3)c2)n(C)n1` [Example 317, N-[3-({2-[(cyclopropylcarbonyl)amino]imidazo[1,2-b]pyridazin-6-yl}amino)phenyl]-1,3-dimethyl-1H-pyrazole-5-carboxamide], the IC50 in assay [1], in assay [3] and in assay [4] was not above 500 nM throughout. For the same compound, the inhibition at 1 µM in assay [2] is not below 90%.

Take `Cc1nn(C)cc1C(=O)Nc1cc(Oc2ccc3nc(NC(=O)C4CC4)cn3n2)ccc1F` [Example 173, N-[5-({2-[(cyclopropylcarbonyl)amino]imidazo[1,2-b]pyridazin-6-yl}oxy)-2-fluorophenyl]-1,3-dimethyl-1H-pyrazole-4-carboxamide]: the IC50 in assay [1], in assay [3] and in assay [4] was not above 500 nM in each case. The inhibition at 1 µM in assay [2] was not below 90%.

For `COc1cc(C(=O)Nc2cc(Oc3ccc4nc(NC(=O)C5CC5)cn4n3)ccc2F)n(C)n1` [Example 180, N-[5-({2-[(cyclopropylcarbonyl)amino]imidazo[1,2-b]pyridazin-6-yl}oxy)-2-fluorophenyl]-3-methoxy-1-methyl-1H-pyrazole-5-carboxamide], the 50% inhibitory concentration (IC50) in assay [1], in assay [3] and in assay [4] was not above 500 nM throughout. The inhibition at 1 µM in assay [2] was not below 90%.

Take `Cc1nc(C)c(C(=O)Nc2cc(Oc3ccc4nc(NC(=O)C5CC5)cn4n3)ccc2F)s1` [Example 267, N-[5-({2-[(cyclopropylcarbonyl)amino]imidazo[1,2-b]pyridazin-6-yl}oxy)-2-fluorophenyl]-2,4-dimethyl-1,3-thiazole-5-carboxamide]: the IC50 in assay [1], in assay [3] and in assay [4] was not above 500 nM throughout. Further, the inhibition at 1 µM in assay [2] was not below 90%.
